Experimental findings from US20190307818A1, “NOVEL ANTIMICROBIAL COMPOSITIONS AND METHODS OF USE” (priority 2016, published 2019) are described below.

The target of assay [1] is T1, LasR (Pseudomonas aeruginosa, UniProt P25084).
T1 construct: expressed in transfected cells; host or cells: E. coli TOP10 carrying pBAD-A 6xHIS-lasR and pCS26 plasB-luxCDABE
Put plainly: Two plasmid E. coli LasR reporter (luciferase). In kind it is cell-based, P. aeruginosa. The settings on record: for remaining activity at 100 µM: read-out: Percent Activity (LasR reporter); for Percent Activity (LasR reporter): inhibitor at 100 μM, relative to wild-type (100%). An excerpt:
(§1) A two plasmid E. coli reporter system was constructed, in which LasR or RhlR was expressed under an arabinose inducible promoter (e.g., LasR or RhlR was cloned into a pBAD-A vector and expressed upon addition of arabinose) in the presence of a LasR-dependent or RhlR-dependent promoter fused to luciferase (e.g., cloned into a pCS26 vector). Upon the addition of arabinose and in the presence of AI, LasR or RhlR were expressed, formed a complex with the cognate AI, underwent dimerization, and activated transcription of the reporter construct. All potential inhibitors were tested at 100 μM. The percent activity was reported relative to wild-type (100%).
(§2) A sample experimental protocol for the RhlR reporter (see, e.g., Table 5A2) or for the LasR reporter (see, e.g., Table 5A1).
(§3) A clean plate was filled with water, 70% ethanol, LB, and primed with cultured cells to ensure that initial dispensing led to the appropriate volume of cells being added to the wells. 20 μL of this solution was dispensed into appropriate wells in a 384-well plate that contained small molecule antagonists. 20 μL of this solution was dispensed into wells intended for a positive control that contain only DMSO. To the culture that was saved for negative control, arabinose was added to 0.1%. An equal volume of DMSO was added to the culture, relative to the amount of AI added to the other culture. 20 μL of culture was dispensed into wells intended for a negative control that contained only DMSO and no small molecule QS inhibitors. Plates were incubated at 30° C. in the plate shaker. Plates were read using a 384 LUM/OD 600 setting on the plate reader after 4 hours of induction.
For data analysis, the average and standard deviation for each of the control groups were determined. In a screen, for each data point, the number of standard deviations from the mean was determined to determine if the inhibitor was a “hit”. In a dose response curve, for each data point, the percent inhibition was determined: 1−(X/M), where X=single data point and M=is the mean of the AI only control group. The dose response curve was then plotted as a function of % inhibition (y) v. [inhibitor] on a log scale (x).

The target of the next assay is T2, RhlR (Pseudomonas aeruginosa, UniProt P54292).
T2 construct: expressed in transfected cells; host or cells: E. coli TOP10 carrying pBAD-A 6xHIS-rhlR and pCS26 prhlA-luxCDABE
Put plainly: Two plasmid E. coli RhlR reporter (luciferase). In kind it is cell-based, P. aeruginosa. Particulars: for remaining activity at 100 µM: read-out: Percent Activity (RhlR reporter); for Percent Activity (RhlR reporter): inhibitor at 100 μM, relative to wild-type (100%).
Description: as §1, §2
For the RhlR reporter, strains were re-streaked on LB+appropriate antibiotic before each experiment and grown overnight at 37° C. Three colonies were picked and a 3 mL overnight culture in LB+appropriate antibiotic was started. The culture was grown overnight at 37° C. The overnight culture was back-diluted 1:1000 into fresh LB+appropriate antibiotic in an appropriate volume, depending on the number of plates being screened. Each well in a 384 well plate received about 20 μL of culture. An additional 25 mL of culture was reserved for priming the plate filler. The culture was grown at 37° C. until OD600˜0.5, which took about 4 hrs. A 384-well plate was prepared. Stock concentrations of molecules (e.g., small molecule inhibitors) were 10 mM.
For a 10-point dose response for the RhlR reporter, a 1:3 dilution of molecule:DMSO (333 μL of stock molecule, 667 μL of DMSO using a 1 mL pipetteman) was used for accurate dispensing by the robot dispenser. Upon a prompt by the software, the appropriate concentration of each molecule was added. Each well was normalized with a DMSO standard to bring the total % volume of DMSO up to 1% using the robot. Plates were set aside with dispensed drugs until the cells were ready. Once the cells reached an OD600 of 0.5, an appropriate amount of cell culture was dispensed for screening into an Erlenmeyer flask. (Extra culture was saved for a negative control.) Arabinose was added to 0.1% final concentration (1:1000 dilution from stock solution), and AI was added to 10 μM (ED75) from a 10 mM stock. The components of the flask were mixed together by swirling. As mentioned previously, other concentrations of AIs may be suitable, e.g., the concentrations may be in the range of 2 uM to 100 uM, from 10 uM to 100 uM or from 2 uM to 10 uM. In some embodiments, 2 nM of 3-O—C12-HSL (for LasR) and 10 uM of C4-HSL (for RhlR) were used.
as §3
For data analysis, the average and standard deviation for each of the control groups were determined. In a screen, for each data point, the number of standard deviations from the mean was determined to determine if the inhibitor was a “hit”. In a dose response curve, for each data point, the percent inhibition was determined: 1−(X/M), where X=single data point and M=is the mean of the AI only control group. […]

The test system of a further assay is LasR and RhlR. The assay is described as follows: Receptor specific reporter assays for LasR and RhlR activity (stated in words). In kind it is cell-based, P. aeruginosa.
Description: wherein R may be H or OH, and two or more of the R substituents of a given compound are OH; R′ is H or OH; and R″ is H or OH. […] A variety of compounds were obtained and tested for activity (e.g., inhibition of receptor specific reporter assays for LasR and RhlR activity).
as §1

Assay [2] addresses T1, LasR. The assay is described as follows: 10-point autoinducer dose response on LasR reporter with QS inhibitor (competition). In kind it is cell-based, P. aeruginosa. Particulars: inhibitor at 100 μM; increasing concentrations of AI. As to the method: FIG. 4. QS inhibitors bind non-competitively to LasR. A 10-point dose response curve with increasing concentrations of autoinducer 3-O—C12-HSL (AI) was generated for a variety of QS small molecule inhibitors. In this figure, curve C12 (filled circle) corresponds to the absence of inhibitor. […] Instead, the inhibitors bind elsewhere on LasR to prevent LasR-dependent transcription.
Using known molecular biology techniques, assays were performed to determine whether binding of the small molecule QS inhibitors and the AIs occurred by a competitive or by another inhibitory mechanism (see, e.g., FIG. 4).
Thus, a 10-point dose response curve with concentrations of AI ranging from 10 pM to 5 nM was generated for a variety of QS small molecule inhibitors. Curve C12 (dotted filled line) corresponds to the absence of inhibitor. […] Instead, the inhibitors bind elsewhere on LasR to prevent LasR-dependent transcription.

In assay [3] the test system is Wild-type P. aeruginosa pyocyanin production. The assay is described as follows: Pyocyanin virulence factor production. In kind it is cell-based. The settings on record: 100 μM overnight, back diluted, grown 18 hrs with inhibitor. As to the method: FIG. 6. QS inhibitors reduce the level of virulence factor production in P. aeruginosa. The ability of the small molecule inhibitors to reduce virulence factor production by monitoring pyocyanin production was assessed.
The ability of the small molecule QS inhibitors to reduce virulence factor production by monitoring production of pyocyanin as a representative virulence factor was assessed. Wild-type P. aeruginosa was incubated with the indicated molecules at 100 μM overnight, back diluted, and grown for 18 hrs in the presence of QS inhibitor.
By varying the concentration of QS inhibitors, dose dependence curves were generated.

T2 sequence (P54292 whole entry): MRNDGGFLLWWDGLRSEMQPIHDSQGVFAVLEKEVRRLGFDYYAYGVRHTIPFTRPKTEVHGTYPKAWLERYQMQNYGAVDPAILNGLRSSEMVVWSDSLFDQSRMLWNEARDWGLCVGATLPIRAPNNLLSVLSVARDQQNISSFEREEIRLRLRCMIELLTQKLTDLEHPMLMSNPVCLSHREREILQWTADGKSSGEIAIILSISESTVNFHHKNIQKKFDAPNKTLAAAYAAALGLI
T1 sequence (P25084 whole entry): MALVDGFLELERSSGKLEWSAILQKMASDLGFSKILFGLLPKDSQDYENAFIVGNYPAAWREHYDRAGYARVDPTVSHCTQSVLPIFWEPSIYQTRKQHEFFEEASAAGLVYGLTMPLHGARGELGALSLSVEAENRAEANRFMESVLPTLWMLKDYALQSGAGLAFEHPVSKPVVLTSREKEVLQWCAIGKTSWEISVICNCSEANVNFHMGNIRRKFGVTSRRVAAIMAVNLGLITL

As to `O=C(CCc1ccc(O)cc1)c1c(O)cc(O)cc1O` [Molecule 1, Phloretin], the results for the remaining activity at 100 µM at LasR [1] and on RhlR were 24.1% and 68.4%, respectively. The “activity (inhibition of receptor specific reporter assays for LasR and RhlR activity)” value in the assay with LasR and RhlR is “inhibit both LasR and RhlR”. In addition, the “competition with autoinducer 3-O—C12-HSL for LasR” value (from here on “competition”) on LasR [2] is given as “did not compete”. In assay [3], the pyocyanin production entry is listed as “inhibit pyocyanin to varying degrees”.
`O=c1cc(-c2ccccc2)oc2cc(O)cc(O)c12` [Molecule 3, Chrysin]: the remaining activity at 100 µM on LasR [1] is 53.1%; on RhlR, 39.2%. Moreover, in the assay on LasR and RhlR, the “activity (inhibition of receptor specific reporter assays for LasR and RhlR activity)” value is “inhibit both LasR and RhlR”. In addition, the “competition” value on LasR [2] is “did not compete”. For the same compound, the pyocyanin production result in assay [3] is recorded as “inhibit pyocyanin to varying degrees”.
Regarding `O=C1CC(c2ccc(O)cc2)Oc2cc(O)cc(O)c21` (stereo not shown) [Molecule 4, Narigenin], in the assay with LasR and RhlR, the “activity (inhibition of receptor specific reporter assays for LasR and RhlR activity)” value is “active”. The pyocyanin production entry in assay [3] is “inhibit pyocyanin to varying degrees”.
Turning to `O=C1CC(c2ccc(O)cc2)Oc2cc(O)cc(O)c21` (stereo not shown) [Molecule 4], the remaining activity at 100 µM at LasR [1] was 63.3%; at RhlR it was 60.5%.
The like results for `O=c1cc(-c2ccc(O)cc2)oc2cc(O)cc(O)c12` [Molecule 43] were, in that order, 82.4% and 84.5%.
For the compound `O=c1cc(-c2ccccc2)oc2cccc(O)c12` [Molecule 44], the “Percent Activity (LasR reporter)” value at LasR [1] is given as “Inactive”. For the same compound, the “Percent Activity (RhlR reporter)” value at RhlR is on record as “Inactive”.
As for `O=c1cc(-c2ccccc2)oc2cc(O)ccc12` [Molecule 45], the “Percent Activity (LasR reporter)” value on LasR [1] was “Inactive”. For the same compound, on RhlR, the “Percent Activity (RhlR reporter)” value is given as “Inactive”.
Consider `O=c1c(O)c(-c2ccc(O)c(O)c2)oc2cc(O)cc(O)c12` [Molecule 48, Quercetin], for which the remaining activity at 100 µM on LasR [1] came to 44.4%; on RhlR it was 40.2%. For the same compound, the “activity (inhibition of receptor specific reporter assays for LasR and RhlR activity)” value in the assay with LasR and RhlR is “inhibit both LasR and RhlR”. Further, the “competition” value on LasR [2] is recorded as “did not compete”. Besides, the pyocyanin production entry in assay [3] is recorded as “inhibit pyocyanin to varying degrees”.
With `COc1cc(OC)c2c(=O)cc(-c3ccccc3)oc2c1` [Molecule 49], at LasR [1], the “Percent Activity (LasR reporter)” value is recorded as “Inactive”. Besides, the “Percent Activity (RhlR reporter)” value on RhlR was “Inactive”.
Regarding `O=c1cc(-c2ccccc2)oc2ccc(O)cc12` [Molecule 50], the “Percent Activity (LasR reporter)” value on LasR [1] is recorded as “Inactive”. The “Percent Activity (RhlR reporter)” value on RhlR is recorded as “Inactive”.
As to `COc1cc(OC)c2c(=O)cc(-c3ccc(O)cc3)oc2c1` [Molecule 52], the “Percent Activity (LasR reporter)” value on LasR [1] was “Inactive”. In addition, the “Percent Activity (RhlR reporter)” value at RhlR is “Inactive”.
On to `O=c1cc(-c2ccccc2)oc2ccc(O)c(O)c12` [Molecule 53], for which the remaining activity at 100 µM at LasR [1] is 16.7%; at RhlR, 31.8%.
The matching figures for `O=c1cc(-c2ccccc2)oc2c(O)c(O)ccc12` [Molecule 54]: 60.3% and 54.5%.
For the compound `O=c1c(O)c(-c2ccccc2)oc2cc(O)cc(O)c12` [Molecule 55], the “Percent Activity (LasR reporter)” value on LasR [1] is “Inactive”. Further, the “Percent Activity (RhlR reporter)” value at RhlR is “Inactive”.
